# From US20260265267A1, “NOVEL COMPOUNDS WITH MTORC2-INHIBITORY ACTIVITY AND USES THEREOF” (Aliad Biopharma, priority 2023, published 2026)
# Columns and labels:
# [1] = system: 5×FAD Alzheimer's disease model mice; experiment: Passive avoidance test in 5×FAD mice (long-term memory); type: in vivo; details: 5 mg/kg, 14 days / 2 weeks (FIG. 7)
# Procedure: In order to evaluate the efficacy of HN2210, HN2213, and HN2313 on Alzheimer's disease-related symptoms, specifically regarding 1) memory and cognitive impairment, 2) amyloid plaques, 3) neurofibrillary tangles (NFTs), and 4) brain inflammation, an in vivo efficacy assessment of HN2210, HN2213 and HN2313 was conducted using 5×FAD Alzheimer's disease model mice. The 5×FAD mice were purchased from Jackson Lab, USA (Cat #034840-JAX) and crossed once with C57bl6 mice to produce F1 heterozygous offspring (Het). The compound was administered via intraperitoneal injection to 6-month-old 5×FAD Het mice, followed by behavioral testing. The normal control mice, which were littermates of the 5×FAD Het mice, were aged to 6 months and received DMSO injection at the same volume.
# Specifically, to mice trained to avoid bright light three times daily, an electric foot shock (1 mA, 300 g) was applied for 3 seconds in a dark room at the same time on the next day. After 24 hours, the mice were placed again in the same room, and the avoidance response by light, that is, the time taken to move from the bright room to the dark room was measured. At 24 hours after habituation training, the mice were placed back into the bright room, and the latency time for entering the dark room was recorded over a period of 720 seconds.
# mTORC2 [2] = biological target: T1, mTORC2 (Homo sapiens, UniProt P42345); experiment: mTORC2 inhibitory activity in HeLa cells (Akt Ser473 phosphorylation, Western blot); type: cell-based; details: for selective inhibition of mTORC2: 40 μM, versus mTORC1; for selective inhibition of mTORC2 / remaining activity at 40 µM: 9 hours; for remaining activity at 40 µM: read-out: pSer473-AKT/AKT (% control); for inhibition at 40 µM: HeLa, 9 h, read-out: reduction in Akt Ser473 phosphorylation compared to the control group
# T1 construct: the following experiments were conducted in HeLa cells; endogenous in cells; host or cells: HeLa
# Procedure: (§1) Specifically, HeLa cells were cultured in a 5% CO2 incubator at 37° C. in DMEM (Dulbecco's Modified Eagles Media) medium supplemented with 10% FBS, penicillin (100 unit/ml), and streptomycin (100 μg/ml). Cultivation was started by seeding 4×10^5 cells in a 100 mm culture dish, and subculture was carried out every 3 days.
# (§2) Human cell line HeLa cells were seeded in a 60 mm culture dish at a density of 2×10^5 cells/plate, and cultured for 24 hours. Then, HeLa cells were treated with 70 types of compounds at a concentration of 40 μM each for 9 hours. HeLa cells were washed twice with cold 1×PBS, and then lysed with 100 μl of RIPA buffer (50 mM Tris-HCl (pH7.4), 0.25% sodium deoxycholate, 50 mM NaF, 1% NP-40, 150 mM NaCl, 1 mM β-glycerophosphate, 1 mM PMSF, 1 mM NaVO4, 1 μg/ml leupeptin, 1 μg/ml pepstatin A, 10 nM calyculin A, 10 μg/ml aprotinin, 1 mM EDTA) to hemolyze the cell membrane. Then, the lysates were centrifuged at 12,000 rpm at 4° C. for 10 minutes to collect the supernatant, which is cell lysate. Protein concentration in the cell lysate was determined using the BCA protein assay kit (Thermo Fisher Scientific), and equal amounts of protein were separated by SDS-PAGE.
# (§3) Western blot analysis was performed by the following method. […] After washing the membrane three times for 5 minutes each with TBS-T buffer, it was incubated with primary antibodies diluted in TBS-T buffer containing 5% skim milk or 5% BSA overnight at 4° C. Subsequently, the membrane was washed three times for 5 minutes each with TBS-T buffer, and then incubated with secondary antibodies diluted in TBS-T buffer containing 5% skim milk at room temperature for 30 minutes. The membrane was washed five times for 5 minutes each with TBS-T buffer containing 5% skim milk, and then the protein bands bound by the secondary antibody were detected using a chemiluminescence method. The primary antibodies used were Akt (cell signaling, #4691), pAkt(S473) (Cell signaling, #4060), p70S6K (Cell signaling, #S6198), pp70S6K(T389) (cell signaling, #9205S), LC3-II (MBL, #PM036), and the secondary antibodies used were HRP conjugated anti-rabbit (Jackson immunoresearch laboratory, #711-035-152) and HRP conjugated anti-mouse IgG (Jackson immunoresearch laboratory, #515-035-072).
# As an mTORC2 activity indicator in HeLa cells, the level of Akt Ser473 phosphorylation was selected as a marker, and the phosphor-Akt (Ser473) signal obtained from Western blot analysis was normalized to the pan-Akt signal, and the data were expressed as a percentage relative to the control group treated with DMSO only, which is a vehicle.
# mTORC1 [3] = biological target: T2, mTORC1 (Homo sapiens, UniProt P42345); experiment: mTORC1 inhibitory activity in HeLa cells (p70S6K Thr389 phosphorylation, Western blot); type: cell-based; details: for remaining activity at 40 µM: read-out: pThr389-S6K/S6K (% control)
# T2 construct: the following experiments were conducted in HeLa cells; endogenous in cells; host or cells: HeLa
# Procedure: as §1, §2, §3
# As an mTORC1 activity indicator in HeLa cells, the level of p70S6K Thr389 phosphorylation was selected as a marker, and the level of phosphor-p70S6K (Thr389) signal measured by Western blot analysis was normalized to a level of pan-p70S6K signal, and then expressed as a percentage of the control group treated with only DMSO, which is a vehicle.
# mTORC2 [4] = experiment: mTORC2 inhibitory activity in primary cultured cerebral neurons (Akt Ser473 phosphorylation); type: cell-based, SD mice; details: for effect on Akt Ser473 phosphorylation / decrease in AKT Ser473 phosphorylation at 24 hours: 500 nM or 100 nM; for effect on Akt Ser473 phosphorylation / pSer473-AKT/AKT (% control): 24 hours
# Procedure: Specifically, primary neural cells were cultured from the cerebral cortex of E16 embryos of SD mice with a gestational age 16-day (Orient Bio). The extracted brain was separated into the left and right hemispheres, the meninges were removed, and the brains were treated with trypsin in Ca^2+/Mg^2+-free HBSS solution.
# The time-dependent changes in Akt Ser473 phosphorylation, Akt Thr308 phosphorylation, and LC3-II levels were measured by Western blot analysis.
# mTORC1 [5] = experiment: mTORC1 inhibitory activity in primary cultured cerebral neurons (S6K Thr389 phosphorylation); type: cell-based, SD mice; details: for effect on S6K Thr389 phosphorylation: 500 nM or 100 nM, time course to 24 hours (HN2304: from 6 to 24 hours); for pThr389-S6K/S6K (% control): 24 hours
# LC3-II [6] = experiment: LC3-II levels in primary cultured cerebral neurons; type: cell-based, SD mice; details: for effect on LC3-II: 500 nM or 100 nM, time course to 24 hours; for LC3-II (% control): 24 hours
# Procedure: Specifically, primary neural cells were cultured from the cerebral cortex of E16 embryos of SD […] with a gestational age 16-day (Orient Bio). The extracted brain was separated into the left and right hemispheres, the meninges were removed, and the brains were treated with trypsin in Ca^2+/Mg^2+-free HBSS solution. […] The cells were seeded at a density of 19,000 cells/cm^2 onto 35 mm culture dishes coated with 50 μg/ml poly-D-Lysine (Sigma, P0899) and 1 μg/ml laminin (Invitrogen, 23017-015), and then maintained in neurobasal complete media supplemented with B27 (Gibco, 17504-044) in a 5% CO2 incubator.
# Therefore, the evaluation of mTORC2 inhibitory activity in primary cultured cerebral cells was conducted using the same method as in Experimental Example 1, except that each compound was treated at concentrations of 500 nM or 100 nM for 24 hours. The time-dependent changes in Akt Ser473 phosphorylation, Akt Thr308 phosphorylation, and LC3-II levels were measured by Western blot analysis.
# LC3-II [7] = experiment: LC3-II formation as indicator of autophagy in HeLa cells (Western blot); type: cell-based, human; details: Homo sapiens, 9 hours, read-out: LC3-II (% control)
# Procedure: as §1, §2, §3
# LC3-II formation was selected as an indicator of autophagy in HeLa cells, and the LC3-II signal obtained from Western blot analysis was normalized to the pan-Akt signal and the data were expressed as a percentage relative to the control group treated with DMSO only, which is a vehicle.
SMILES,selective inhibition of mTORC2 (mTORC2 [2]),remaining activity at 40 µM (mTORC2 [2]) [%],inhibition at 40 µM (mTORC2 [2]) [%],remaining activity at 40 µM (mTORC1 [3]; 9 hours) [%],activity at 40 µM (LC3-II [7]) [%],also measured
"CO[C@H]1C[C@@H]2CC[C@@H](C)[C@@](O)(O2)C(=O)C(=O)N2CCCC[C@H]2C(=O)O[C@H]([C@H](C)C[C@@H]2CC[C@@H](O)[C@H](OC)C2)CC(=O)[C@H](C)/C=C(\C)[C@@H](O)[C@@H](OC)C(=O)[C@H](C)C[C@H](C)/C=C/C=C/C=C/1C [rapamycin, reference compound]",,,,,,"passive avoidance latency time, % of the normal control level [1]: ~36%"
"COc1cc2c(cc1OC)C(=O)c1cc(Br)ccc1CS2 [HN2304, 9-bromo-2,3-dimethoxydibenzo[b,e]thiepin-11(6H)-one]",selectively inhibit mTORC2,44,> 20,204,,selectivity for mTORC2 over mTORC1 (mTORC2 [4]): selective mTORC2 inhibitors; effect on Akt Ser473 phosphorylation (mTORC2 [4]): reduce Akt Ser473 phosphorylation; decrease in AKT Ser473 phosphorylation at 24 hours (mTORC2 [4]): 17%; pSer473-AKT/AKT (% control) (mTORC2 [4]; 500 nM): 82 % control; AKT Ser473 phosphorylation from 1 to 12 hours (mTORC2 [4]): significantly increased; effect on S6K Thr389 phosphorylation (mTORC1 [5]): markedly increased; pThr389-S6K/S6K (% control) (mTORC1 [5]; 500 nM): 504 % control; effect on LC3-II (LC3-II [6]): not affected; LC3-II (% control) (LC3-II [6]; 500 nM): 82 % control
"CN(C)c1cc2c(cc1F)C(=O)c1cc3c(cc1OC2)OCO3 [HN2209, 8-(dimethylamino)-9-fluoro[2]benzoxepino[3,4-f]-1,3-benzodioxol-11(6H)-one]",selectively inhibit mTORC2,54,> 20,191,124,
"O=C1c2cc3c(cc2OCc2c1ccc(F)c2F)OCO3 [HN2225, 7,8-difluoro[2]benzoxepino[3,4-f]-1,3-benzodioxol-11(6H)-one]",selectively inhibit mTORC2,66,> 20,100,100,
"Cc1ccc(-c2ccc3c(c2)C(=O)c2cc4c(cc2OC3)OCO4)cc1 [HN2217, 9-(p-tolyl)[2]benzoxepino[3,4-f]-1,3-benzodioxol-11(6H)-one]",selectively inhibit mTORC2,38,> 20,224,149,
"O=C1c2cc(-c3ccoc3)ccc2COc2cc3c(cc21)OCO3 [HN2216, 9-(3-furanyl)[2]benzoxepino[3,4-f]-1,3-benzodioxol-11(6H)-one]",selectively inhibit mTORC2,64,> 20,121,99,"increase in S6K Thr389 phosphorylation (mTORC1 [3]; 40 μM, 9 hours): 21%"

# Now from value to molecule, other results behind:
selective inhibition of mTORC2 (mTORC2 [2]),remaining activity at 40 µM (mTORC2 [2]) [%],inhibition at 40 µM (mTORC2 [2]) [%],remaining activity at 40 µM (mTORC1 [3]; 9 hours) [%],SMILES,activity at 40 µM (LC3-II [7]) [%],also measured
selectively inhibit mTORC2,73,> 20,122,"CS(=O)(=O)Nc1ccc2c(c1F)COc1cc3c(cc1C2=O)OCO3 [HN2302, N-(7-fluoro-11-oxo-6,11-dihydro-[1,3]dioxolo[4′,5′:4,5]benzo[1,2-b]benzo[e]oxepin-8-yl)methanesulfonamide]",108,
selectively inhibit mTORC2,44,,95,"COc1cc2c(cc1OC)C(=O)c1cc(-c3ccoc3)ccc1CS2 [HN2308, 9-(3-furanyl)-2,3-dimethoxydibenzo[b,e]thiepin-11(6H)-one]",,"effect on S6K Thr389 phosphorylation (mTORC1 [3]; 40 μM, 9 hours): no effect; selectivity for mTORC2 over mTORC1 (mTORC2 [4]): selective mTORC2 inhibitors; pSer473-AKT/AKT (% control) (mTORC2 [4]; 100 nM): 46 % control; effect on Akt Ser473 phosphorylation (mTORC2 [4]): reduce Akt Ser473 phosphorylation; decrease in AKT Ser473 phosphorylation at 24 hours (mTORC2 [4]): 54%; AKT Ser473 phosphorylation from 1 to 12 hours (mTORC2 [4]): increased AKT Ser473 phosphorylation significantly; pThr389-S6K/S6K (% control) (mTORC1 [5]; 100 nM): 104 % control; effect on S6K Thr389 phosphorylation (mTORC1 [5]): no effect; LC3-II (% control) (LC3-II [6]; 100 nM): 119 % control; effect on LC3-II (LC3-II [6]): no effect"
selectively inhibit mTORC2,54,> 20,81,"CS(=O)(=O)Nc1cc2c(cc1F)C(=O)c1cc3c(cc1OC2)OCO3 [HN2301, N-(9-fluoro-11-oxo-6,11-dihydro-[1,3]dioxolo[4′,5′:4,5]benzo[1,2-b]benzo[e]oxepin-8-yl)methanesulfonamide]",96,
,79,> 20,78,"O=C1c2cc3c(cc2OCc2c1ccc(NC1CCCC1)c2F)OCO3 [HN2319, 8-(cyclopentylamino)-7-fluoro-[1,3]dioxolo[4′,5′:4,5]benzo[1,2-b]benzo[e]oxepin-11(6H)-one]",157,"inhibition at 40 µM (mTORC1 [3]; HeLa, 9 h, read-out: reduction in p70S6K Thr389 phosphorylation compared to the control group): > 20%"
